The target in one experiment is IDH1 R132H (Homo sapiens, UniProt O75874, R132H). Description: Assay for IDH1 R132H inhibitors (NADPH/aKG, resazurin detection). Type of experiment: biochemical. Conditions: enzyme assay of Example 12; read-out: IDH1R132H IC50. In outline: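 Compound added to substrate mix (8 uM NADPH, 2 mM aKG), then enzyme mix (0.2 μg/ml IDH1 R132H); 50 min RT in 20 mM Tris pH 7.5, 150 mM NaCl, 10 mM MgCl2, 0.03% BSA. Resazurin detection mix (30 μM) 5 min RT; resorufin fluorescence Ex544/Em590.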
IDH1 R132H, sequence (O75874 whole entry R132H): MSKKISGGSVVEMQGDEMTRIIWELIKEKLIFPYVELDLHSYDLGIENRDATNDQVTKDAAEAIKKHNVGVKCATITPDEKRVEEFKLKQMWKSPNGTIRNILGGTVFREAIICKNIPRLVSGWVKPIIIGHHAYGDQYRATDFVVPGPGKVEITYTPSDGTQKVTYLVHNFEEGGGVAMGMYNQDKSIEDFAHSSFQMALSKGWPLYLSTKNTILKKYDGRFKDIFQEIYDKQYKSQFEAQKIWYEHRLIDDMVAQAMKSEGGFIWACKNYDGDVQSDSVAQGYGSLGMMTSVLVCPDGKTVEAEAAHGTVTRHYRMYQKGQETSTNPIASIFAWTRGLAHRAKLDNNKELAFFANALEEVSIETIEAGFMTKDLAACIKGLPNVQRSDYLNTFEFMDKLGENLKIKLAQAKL
Background: The colour change of resazurin is a common sign of viable cells or microbes.

The next experiment has as its system U87MG cells. Description: Cellular assay for IDH1m inhibitors: inhibition of 2-HG production (LC-MS, 48 hours) in U87MG cells. Type of experiment: cell-based. Conditions: inhibition of 2-HG production, U87R132H cells, read-out: U87R132H IC50. In short, it runs like this:
(§1)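 HT1080 or U87MG cells were seeded at 5000/well in DMEM with 10% FBS, incubated overnight, then treated with compounds (0.2% DMSO final) for 48 h. Medium 2-HG was quantified by LC-MS, and IC50 was taken as the concentration reducing 2-HG by 50% versus DMSO control.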

In another experiment the test system is HT1080 cells. Kind of experiment: Cellular assay for IDH1m inhibitors: inhibition of 2-HG production (LC-MS, 48 hours) in HT1080 cells. It is filed as cell-based. Conditions: Homo sapiens, HT-1080; inhibition of 2-HG production, HT1080 cells; read-out: HT1080 IC50. In outline:
as §1

Read-outs that look alike come from different tables or passages of the source.

Take `C=Cc1ccnc(Nc2cc(C#N)c(N3CCN(C(=O)CCOC)[C@H](C)C3)nc2C2CC2)n1` [Compound 736, (R)-6-cyclopropyl-2-(4-(3-methoxypropanoyl)-3-methylpiperazin-1-yl)-5-((4-vinylpyrimidin-2-yl)amino)nicotinonitrile]: the concentration for half-maximal inhibition (IC50) at IDH1 R132H is less than 500 nM; in the experiment on U87MG cells (Homo sapiens, U-87 MG) it was less than 500 nM; in the experiment with HT1080 cells it was less than 500 nM.

For the compound `C=Cc1ncc2c(-c3cc(C#N)c(N4CCN(C(=O)CCO)[C@H](C5CC5)C4)nc3C3CC3)cccc2n1` [Compound 737], the IC50 on IDH1 R132H is less than 500 nM; with U87MG cells, 500 to 1000 nM; in the experiment on HT1080 cells it was 500 to 1000 nM.

Take `C=Cc1cc(-c2cc(C#N)c(N3CCN(C(=O)CO)[C@H](C4CC4)C3)nc2C2CC2)ccn1` [Compound 738, (R)-2-cyclopropyl-6-(3-cyclopropyl-4-(2-hydroxyacetyl)piperazin-1-yl)-2′-vinyl-3,4′-bipyridine-5-carbonitrile]: the IC50 was less than 500 nM at IDH1 R132H; less than 500 nM in the experiment on U87MG cells (Homo sapiens, U-87 MG); less than 500 nM with HT1080 cells.

Turning to `C=Cc1cc(-c2cc(C#N)c(N3CCN(C(=O)CCO)[C@H](C4CC4)C3)nc2C2CC2)c2cc[nH]c2n1` [Compound 740, (R)-6-cyclopropyl-2-(3-cyclopropyl-4-(3-hydroxypropanoyl)piperazin-1-yl)-5-(6-vinyl-1H-pyrrolo[2,3-b]pyridin-4-yl)nicotinonitrile], the IC50 on IDH1 R132H was less than 500 nM; in the experiment with U87MG cells (Homo sapiens, U-87 MG), less than 500 nM; with HT1080 cells, less than 500 nM.

In the case of `C=Cc1cc(-c2cc(C#N)c(N3CCN(C(=O)COC)[C@H](C(C)C)C3)nc2C2CC2)c2ccncc2n1` [Compound 741, (R)-6-cyclopropyl-2-(3-isopropyl-4-(2-methoxyacetyl)piperazin-1-yl)-5-(2-vinyl-1,7-naphthyridin-4-yl)nicotinonitrile], the IC50 at IDH1 R132H was less than 500 nM; in the experiment with U87MG cells (Homo sapiens, U-87 MG), less than 500 nM; in the experiment on HT1080 cells, less than 500 nM.

As to `C=Cc1cc(Nc2c(C3CC3)nc(N3CCN(C(=O)CCO)[C@H](C4CC4)C3)c(C#N)c2C)ccn1` [Compound 742, (R)-6-cyclopropyl-2-(3-cyclopropyl-4-(3-hydroxypropanoyl)piperazin-1-yl)-4-methyl-5-(2-vinylpyridin-4-ylamino)nicotinonitrile], the IC50 is less than 500 nM on IDH1 R132H; less than 500 nM in the experiment on U87MG cells (Homo sapiens, U-87 MG); less than 500 nM with HT1080 cells.

On to `C=Cc1cc(Nc2cc(C#N)c(N3CCN(C(=O)COC)[C@H](C(C)C)C3)nc2C2CC2)ccn1` [Compound 743, (R)-6-cyclopropyl-2-(3-isopropyl-4-(2-methoxyacetyl)piperazin-1-yl)-5-((2-vinylpyridin-4-yl)amino)nicotinonitrile], for which the IC50 on IDH1 R132H is less than 500 nM; with U87MG cells (Homo sapiens, U-87 MG), less than 500 nM; with HT1080 cells it was less than 500 nM.

In the case of `C=Cc1cc(-c2cc(C#N)c(N3CCN(C(=O)CCO)[C@H](C4CC4)C3)nc2C2CC2)c2cnn(C)c2n1` [Compound 744, (R)-6-cyclopropyl-2-(3-cyclopropyl-4-(3-hydroxypropanoyl)piperazin-1-yl)-5-(1-methyl-6-vinyl-1H-pyrazolo[3,4-b]pyridin-4-yl)nicotinonitrile], the half-inhibitory concentration (IC50) on IDH1 R132H is less than 500 nM; with U87MG cells (Homo sapiens, U-87 MG), less than 500 nM; in the experiment on HT1080 cells, less than 500 nM.

With `C=CC(=O)N1CCC=C(c2c(C3CC3)nc(N3CCN(C(=O)CCOC)[C@H](C4CC4)C3)c(C#N)c2C)C1` [Compound 745, (R)-5-(1-acryloyl-1,2,5,6-tetrahydropyridin-3-yl)-6-cyclopropyl-2-(3-cyclopropyl-4-(3-methoxypropanoyl)piperazin-1-yl)-4-methylnicotinonitrile], the half-maximal inhibitory concentration (IC50) was less than 500 nM on IDH1 R132H; less than 500 nM in the experiment on U87MG cells (Homo sapiens, U-87 MG); less than 500 nM with HT1080 cells.

With `C=Cc1cc(-c2c(C3CC3)nc(N3CCN(C(=O)CCOC)[C@H](C4CC4)C3)c(C#N)c2C)c2ccncc2n1` [Compound 746, 6-cyclopropyl-2-((R)-3-cyclopropyl-4-(3-methoxypropanoyl)piperazin-1-yl)-4-methyl-5-(2-vinyl-1,7-naphthyridin-4-yl)nicotinonitrile], the IC50 is less than 500 nM at IDH1 R132H; less than 500 nM with U87MG cells (Homo sapiens, U-87 MG); less than 500 nM with HT1080 cells.

For `C=Cc1cc(-c2cc(C#N)c(N3CCN(C(=O)CCCOC)[C@H](C4CC4)C3)nc2C2CC2)ccn1` [Compound 747, (R)-2-cyclopropyl-6-(3-cyclopropyl-4-(4-methoxybutanoyl)piperazin-1-yl)-2′-vinyl-3,4′-bipyridine-5-carbonitrile], the IC50 at IDH1 R132H is less than 500 nM; in the experiment on U87MG cells (Homo sapiens, U-87 MG), less than 500 nM; in the experiment on HT1080 cells, less than 500 nM.

For the compound `N#Cc1cc(Nc2ccnc(Cl)c2)c(C2CC2)nc1N1CCN(C(=O)C[C@H]2CCO2)[C@H](C2CC2)C1` [Compound 748, 5-(2-chloropyridin-4-ylamino)-6-cyclopropyl-2-((R)-3-cyclopropyl-4-(2-((R)-oxetan-2-yl)acetyl)piperazin-1-yl)nicotinonitrile], the IC50 is less than 500 nM on IDH1 R132H; less than 500 nM in the experiment with U87MG cells (Homo sapiens, U-87 MG); less than 500 nM in the experiment on HT1080 cells.

Consider `C=Cc1cc(-c2c(C3CC3)nc(N3CCN(C(=O)CCOC)[C@H](C4CC4)C3)c(C#N)c2C)cnn1` [Compound 749, (R)-6-cyclopropyl-2-(3-cyclopropyl-4-(3-methoxypropanoyl)piperazin-1-yl)-4-methyl-5-(6-vinylpyridazin-4-yl)nicotinonitrile], for which the half-inhibitory concentration (IC50) was less than 500 nM at IDH1 R132H; less than 500 nM in the experiment on U87MG cells (Homo sapiens, U-87 MG); less than 500 nM in the experiment on HT1080 cells.

Consider `C#Cc1ccnc(Nc2cc(C#N)c(N3CCN(C(=O)COC)[C@H](C4CC4)C3)nc2C2CC2)c1` [Compound 750, (R)-6-cyclopropyl-2-(3-cyclopropyl-4-(2-methoxyacetyl)piperazin-1-yl)-5-(4-ethynylpyridin-2-ylamino)nicotinonitrile], for which the IC50 was less than 500 nM at IDH1 R132H; less than 500 nM with U87MG cells (Homo sapiens, U-87 MG); less than 500 nM in the experiment on HT1080 cells.

Take `C=Cc1cc(Nc2cc(C#N)c(N3CCN(C(=O)C[C@H]4CCO4)[C@H](C4CC4)C3)nc2C2CC2)ccn1` [Compound 751, 6-cyclopropyl-2-((R)-3-cyclopropyl-4-(2-((R)-oxetan-2-yl)acetyl)piperazin-1-yl)-5-(2-vinylpyridin-4-ylamino)nicotinonitrile]: the concentration for half-maximal inhibition (IC50) at IDH1 R132H was less than 500 nM; with U87MG cells (Homo sapiens, U-87 MG), less than 500 nM; in the experiment on HT1080 cells, less than 500 nM.

Turning to `C=Cc1cc(-c2cc(C#N)c(N3CCN(C(=O)C[C@H]4CCO4)[C@H](C4CC4)C3)nc2C2CC2)ccn1` [Compound 752, 2-cyclopropyl-6-((R)-3-cyclopropyl-4-(2-((R)-oxetan-2-yl)acetyl)piperazin-1-yl)-2′-vinyl-3,4′-bipyridine-5-carbonitrile], the IC50 on IDH1 R132H is less than 500 nM; with U87MG cells (Homo sapiens, U-87 MG) it was less than 500 nM; in the experiment with HT1080 cells it was less than 500 nM.

For `C=Cc1cc(-c2cc(C#N)c(N3CCN(C(=O)CCCO)[C@H](C4CC4)C3)nc2C2CC2)ccn1` [Compound 753, (R)-2-cyclopropyl-6-(3-cyclopropyl-4-(4-hydroxybutanoyl)piperazin-1-yl)-2′-vinyl-3,4′-bipyridine-5-carbonitrile], the 50% inhibitory concentration (IC50) is less than 500 nM at IDH1 R132H; less than 500 nM in the experiment with U87MG cells (Homo sapiens, U-87 MG); less than 500 nM in the experiment on HT1080 cells.

For `C=Cc1cc(Nc2cc(C#N)c(N3CCN(C(=O)CCO)[C@H](C(C)C)C3)nc2C2CC2)ccn1` [Compound 754, (R)-6-cyclopropyl-2-(4-(3-hydroxypropanoyl)-3-isopropylpiperazin-1-yl)-5-(2-vinylpyridin-4-ylamino)nicotinonitrile], the IC50 on IDH1 R132H was less than 500 nM; in the experiment with U87MG cells (Homo sapiens, U-87 MG) it was less than 500 nM; in the experiment on HT1080 cells, less than 500 nM.

On to `C=CC(=O)N1CCC=C(c2c(C3CC3)nc(N3CCN(C(=O)CCO)[C@H](C4CC4)C3)c(C#N)c2C)C1` [Compound 755, (R)-5-(1-acryloyl-1,2,5,6-tetrahydropyridin-3-yl)-6-cyclopropyl-2-(3-cyclopropyl-4-(3-hydroxypropanoyl)piperazin-1-yl)-4-methylnicotinonitrile], for which the IC50 on IDH1 R132H was less than 500 nM; with U87MG cells (Homo sapiens, U-87 MG) it was less than 500 nM; in the experiment on HT1080 cells, less than 500 nM.

Consider `C=Cc1ccnc(Nc2cc(C#N)c(N3CCN(C(=O)CCO)[C@H](C4CC4)C3)nc2C2CC2)c1` [Compound 756, (R)-6-cyclopropyl-2-(3-cyclopropyl-4-(3-hydroxypropanoyl)piperazin-1-yl)-5-((4-vinylpyridin-2-yl)amino)nicotinonitrile], for which the IC50 is less than 500 nM on IDH1 R132H; less than 500 nM with U87MG cells (Homo sapiens, U-87 MG); less than 500 nM in the experiment on HT1080 cells.

Consider `C=Cc1cc(-c2c(C3CC3)nc(N3CCN(C(=O)C[C@H]4CCO4)[C@H](C4CC4)C3)c(C#N)c2C)ccn1` [Compound 760, 2-cyclopropyl-6-((R)-3-cyclopropyl-4-(2-((R)-oxetan-2-yl)acetyl)piperazin-1-yl)-4-methyl-2′-vinyl-3,4′-bipyridine-5-carbonitrile], for which the concentration for half-maximal inhibition (IC50) at IDH1 R132H is less than 500 nM; in the experiment on U87MG cells (Homo sapiens, U-87 MG), less than 500 nM; in the experiment on HT1080 cells, less than 500 nM.

In the case of `C=Cc1cc(-c2c(C3CC3)nc(N3CCN(C(=O)C[C@@H]4CCO4)[C@H](C4CC4)C3)c(C#N)c2C)ccn1` [Compound 761, 2-cyclopropyl-6-((R)-3-cyclopropyl-4-(2-((S)-oxetan-2-yl)acetyl)piperazin-1-yl)-4-methyl-2′-vinyl-3,4′-bipyridine-5-carbonitrile], the IC50 at IDH1 R132H is less than 500 nM; in the experiment with U87MG cells (Homo sapiens, U-87 MG), less than 500 nM; in the experiment on HT1080 cells, less than 500 nM.

One may read the IC50 as the concentration at which inhibition is half-maximal.

(Values after patent publication US9856279B2 (AGIOS PHARMACEUTICALS, INC, priority 2011, dated 2018).)
